In PubChem BioAssay AID1259407 (Chemical Carcinogenesis Research Information System (CCRIS), 2018):
Calls of active or inactive are those of the source. No rule for the calls is given here.

Test system: CCRIS mutagenicity, Ames/micronucleus/aberration tests
Assay: CCRIS mutagenicity studies
[1] = Test System: AMES SALMONELLA TYPHIMURIUM, Strain/Indicator: TA98, Metabolic Activation: NONE, Method: STANDARD PLATE
[2] = Test System: AMES SALMONELLA TYPHIMURIUM, Strain/Indicator: TA100, Metabolic Activation: NONE, Method: STANDARD PLATE
[3] = Test System: AMES SALMONELLA TYPHIMURIUM, Strain/Indicator: TA1535, Metabolic Activation: NONE, Method: STANDARD PLATE
[4] = Test System: AMES SALMONELLA TYPHIMURIUM, Strain/Indicator: TA1537, Metabolic Activation: NONE, Method: STANDARD PLATE
[5] = Test System: AMES SALMONELLA TYPHIMURIUM, Strain/Indicator: TA98, Metabolic Activation: NONE, Method: PREINCUBATION

Q: Which mutagenic call [1] does the source give for `C[C@@H]1O[C@H](C)[C@@H](O)[C@H](O)[C@@H]1OS(=O)(=O)O` here?
A: inactive; negative

Q: What about the mutagenic call (Test System: AMES SALMONELLA TYPHIMURIUM, Strain/Indicator: TA98, Metabolic Activation: S-9, Method: STANDARD PLATE) of the same compound?
A: inactive; negative

Q: And the mutagenic call [2]?
A: inactive; negative

Q: And the mutagenic call (Test System: AMES SALMONELLA TYPHIMURIUM, Strain/Indicator: TA100, Metabolic Activation: S-9, Method: STANDARD PLATE)?
A: inactive; negative

Q: What about the mutagenic call [3] of the same compound?
A: inactive; negative

Q: What about the mutagenic call (Test System: AMES SALMONELLA TYPHIMURIUM, Strain/Indicator: TA1535, Metabolic Activation: S-9, Method: STANDARD PLATE) of the same compound?
A: inactive; negative

Q: What about the mutagenic call [4] of the same compound?
A: inactive; negative

Q: What about the mutagenic call (Test System: AMES SALMONELLA TYPHIMURIUM, Strain/Indicator: TA1537, Metabolic Activation: S-9, Method: STANDARD PLATE) of the same compound?
A: inactive; negative

Q: And the mutagenic call (Test System: E. COLI, Strain/Indicator: WP2 UVRA, Metabolic Activation: NONE, Method: STANDARD PLATE)?
A: inactive; negative

Q: What about the mutagenic call (Test System: E. COLI, Strain/Indicator: WP2 UVRA, Metabolic Activation: S-9, Method: STANDARD PLATE) of the same compound?
A: inactive; negative

Q: `O=c1cccc2cc(O)c(O)c(O)c2c1O` was tested. Which mutagenic call (Test System: AMES SALMONELLA TYPHIMURIUM, Strain/Indicator: TA2638, Metabolic Activation: S-9, Method: STANDARD PLATE) did it give?
A: inactive; negative

Q: Which results are given for `O=[N+]([O-])c1ccc2c(c1)Cc1cccc(O)c1-2`?
A: mutagenic call [5]: active; positive; mutagenic call (Test System: AMES SALMONELLA TYPHIMURIUM, Strain/Indicator: TA98, Metabolic Activation: S-9, Method: PREINCUBATION): active; positive

Q: `CCN(CC)c1ccc(N=Nc2sc(C=O)c(Cl)c2C#N)c(NC(=O)COC)c1` was tested. Which mutagenic call (End Point: IN VITRO CHROMOSOMAL ABERRATIONS, Test System: CHL CELLS, Metabolic Activation: RAT, LIVER, S-9, SODIUM PHENOBARBITAL AND 5,6-BENZOFLAVONE) did it give?
A: inactive; negative; precipitation occurred at all doses

Q: What does the source list for `Cn1c(N)nc2nc3cccnc3cc21`?
A: mutagenic call (Test System: AMES SALMONELLA TYPHIMURIUM, Strain/Indicator: TA98, Metabolic Activation: RAT, LIVER, S-9, AROCLOR 1254A, Method: STANDARD PLATE): inactive; negative; mutagenic call (Test System: AMES SALMONELLA TYPHIMURIUM, Strain/Indicator: YG1024, Metabolic Activation: RAT, LIVER, S-9, AROCLOR 1254A, Method: STANDARD PLATE): active; positive

Q: What does the source list for `FC(F)(F)c1cccc(Cl)c1`?
A: mutagenic call (Test System: AMES SALMONELLA TYPHIMURIUM, Strain/Indicator: TA97, Metabolic Activation: HAMSTER, LIVER, S-9, AROCLOR 1254 (10%), Method: PREINCUBATION): inactive; negative; mutagenic call (Test System: AMES SALMONELLA TYPHIMURIUM, Strain/Indicator: TA97, Metabolic Activation: HAMSTER, LIVER, S-9, AROCLOR 1254 (30%), Method: PREINCUBATION): inactive; negative; mutagenic call (Test System: AMES SALMONELLA TYPHIMURIUM, Strain/Indicator: TA97, Metabolic Activation: NONE, Method: PREINCUBATION): inactive; negative; mutagenic call (Test System: AMES SALMONELLA TYPHIMURIUM, Strain/Indicator: TA97, Metabolic Activation: RAT, LIVER, S-9, AROCLOR 1254 (10%), Method: PREINCUBATION): inactive; negative; mutagenic call (Test System: AMES SALMONELLA TYPHIMURIUM, Strain/Indicator: TA97, Metabolic Activation: RAT, LIVER, S-9, AROCLOR 1254 (30%), Method: PREINCUBATION): inactive; negative; mutagenic call (Test System: AMES SALMONELLA TYPHIMURIUM, Strain/Indicator: TA98, Metabolic Activation: HAMSTER, LIVER, S-9, AROCLOR 1254 (10%), Method: PREINCUBATION): inactive; negative; mutagenic call (Test System: AMES SALMONELLA TYPHIMURIUM, Strain/Indicator: TA98, Metabolic Activation: HAMSTER, LIVER, S-9, AROCLOR 1254 (30%), Method: PREINCUBATION): inactive; negative; mutagenic call [5]: inactive; negative; mutagenic call [1]: inactive; negative; mutagenic call (Test System: AMES SALMONELLA TYPHIMURIUM, Strain/Indicator: TA98, Metabolic Activation: RAT, LIVER, S-9, AROCLOR 1254 (10%), Method: PREINCUBATION): inactive; negative; mutagenic call (Test System: AMES SALMONELLA TYPHIMURIUM, Strain/Indicator: TA98, Metabolic Activation: RAT, LIVER, S-9, AROCLOR 1254 (30%), Method: PREINCUBATION): inactive; negative; mutagenic call (Test System: AMES SALMONELLA TYPHIMURIUM, Strain/Indicator: TA98, Metabolic Activation: RAT, LIVER, S-9, AROCLOR 1254, Method: STANDARD PLATE): inactive; negative; mutagenic call (Test System: AMES SALMONELLA TYPHIMURIUM, Strain/Indicator: TA100, Metabolic Activation: HAMSTER, LIVER, S-9, AROCLOR 1254 (10%), Method: PREINCUBATION): inactive; negative; mutagenic call (Test System: AMES SALMONELLA TYPHIMURIUM, Strain/Indicator: TA100, Metabolic Activation: HAMSTER, LIVER, S-9, AROCLOR 1254 (30%), Method: PREINCUBATION): inactive; negative; mutagenic call (Test System: AMES SALMONELLA TYPHIMURIUM, Strain/Indicator: TA100, Metabolic Activation: NONE, Method: PREINCUBATION): inactive; negative; mutagenic call [2]: inactive; negative; mutagenic call (Test System: AMES SALMONELLA TYPHIMURIUM, Strain/Indicator: TA100, Metabolic Activation: RAT, LIVER, S-9, AROCLOR 1254 (10%), Method: PREINCUBATION): inactive; negative; mutagenic call (Test System: AMES SALMONELLA TYPHIMURIUM, Strain/Indicator: TA100, Metabolic Activation: RAT, LIVER, S-9, AROCLOR 1254 (30%), Method: PREINCUBATION): inactive; negative; mutagenic call (Test System: AMES SALMONELLA TYPHIMURIUM, Strain/Indicator: TA100, Metabolic Activation: RAT, LIVER, S-9, AROCLOR 1254, Method: STANDARD PLATE): inactive; negative; mutagenic call (Test System: AMES SALMONELLA TYPHIMURIUM, Strain/Indicator: TA1535, Metabolic Activation: HAMSTER, LIVER, S-9, AROCLOR 1254 (10%), Method: PREINCUBATION): inactive; negative; mutagenic call (Test System: AMES SALMONELLA TYPHIMURIUM, Strain/Indicator: TA1535, Metabolic Activation: HAMSTER, LIVER, S-9, AROCLOR 1254 (30%), Method: PREINCUBATION): inactive; negative; mutagenic call (Test System: AMES SALMONELLA TYPHIMURIUM, Strain/Indicator: TA1535, Metabolic Activation: NONE, Method: PREINCUBATION): inactive; negative; mutagenic call [3]: inactive; negative; mutagenic call (Test System: AMES SALMONELLA TYPHIMURIUM, Strain/Indicator: TA1535, Metabolic Activation: RAT, LIVER, S-9, AROCLOR 1254 (10%), Method: PREINCUBATION): inactive; negative; mutagenic call (Test System: AMES SALMONELLA TYPHIMURIUM, Strain/Indicator: TA1535, Metabolic Activation: RAT, LIVER, S-9, AROCLOR 1254 (30%), Method: PREINCUBATION): inactive; negative; mutagenic call (Test System: AMES SALMONELLA TYPHIMURIUM, Strain/Indicator: TA1535, Metabolic Activation: RAT, LIVER, S-9, AROCLOR 1254, Method: STANDARD PLATE): inactive; negative; mutagenic call (Test System: AMES SALMONELLA TYPHIMURIUM, Strain/Indicator: TA1537, Metabolic Activation: HAMSTER, LIVER, S-9, AROCLOR 1254 (30%), Method: PREINCUBATION): inactive; negative; mutagenic call (Test System: AMES SALMONELLA TYPHIMURIUM, Strain/Indicator: TA1537, Metabolic Activation: NONE, Method: PREINCUBATION): inactive; negative; mutagenic call [4]: inactive; negative; mutagenic call (Test System: AMES SALMONELLA TYPHIMURIUM, Strain/Indicator: TA1537, Metabolic Activation: RAT, LIVER, S-9, AROCLOR 1254 (30%), Method: PREINCUBATION): inactive; negative; mutagenic call (Test System: AMES SALMONELLA TYPHIMURIUM, Strain/Indicator: TA1537, Metabolic Activation: RAT, LIVER, S-9, AROCLOR 1254, Method: STANDARD PLATE): inactive; negative; mutagenic call (Test System: AMES SALMONELLA TYPHIMURIUM, Strain/Indicator: TA1538, Metabolic Activation: NONE, Method: STANDARD PLATE): inactive; negative; mutagenic call (Test System: AMES SALMONELLA TYPHIMURIUM, Strain/Indicator: TA1538, Metabolic Activation: RAT, LIVER, S-9, AROCLOR 1254, Method: STANDARD PLATE): inactive; negative
